Source: publication PMC12367838, “Relevance of kinetic interactions and co-formulants for plant protection product liver toxicity in vitro” (Archives of Toxicology, 2025)

What was measured:
HepaRG cells [1] = experiment: AdipoRed triglyceride accumulation assay; type: cell-based, human; conditions: for Relative triglyceride accumulation: related to medium control
Experimental: Different elements of the liver steatosis AOP were evaluated in this study. Transcriptomics was employed as a tool to investigate the expression of liver steatosis-related genes that occur either as MIE (genes related to NR activation) or molecular and cellular KEs. In addition to gene expression, lipid accumulation in HepaRG cells was conducted to cover molecular KEs. Considering that upstream MIEs occur earlier than subsequent downstream KEs (Alarcan et al. [2021]), we applied different time points (24 h for transcriptomics and 72 h for lipid accumulation) to reflect the temporal relationships between biological events.
HepaRG cells were treated in 96-well plates for 72 h with eight different concentrations of the above-mentioned test compounds, with the highest concentration of each being the highest non-cytotoxic concentration. The synthetic LXR and FXR agonist, T0901317, was used as a positive control at a concentration of 10 µM. After the 72-h incubation, cells were washed with 200 µL phosphate-buffered saline (PBS), and then 200 µL PBS containing 5 µg/mL Hoechst 33,342 (Thermo Fisher Scientific; Waltham, Massachusetts, USA) was added to each well. Thereafter, 5 µL of the AdipoRed reagent was added to each well, and the plates were incubated at 37 °C for 10 min. Subsequently, the fluorescence of AdipoRed was measured at λexc = 485 nm/λemi = 572 nm, and Hoechst 33,342 was measured at λexc = 350 nm/λemi = 451 nm on the Infinite M200 PRO plate reader (Tecan; Männedorf, Switzerland). AdipoRed signals were normalized to Hoechst 33,342 signals to compensate for variations in cell number. Relative triglyceride levels were referred to untreated cells. Each concentration was measured in three technical replicates. Three independent biological replicates were performed (n = 3) and means as well as SD were calculated.
A linear mixed-effects ANOVA (α = 0.05) described by Pinheiro and Bates ([2000]) followed by a post-hoc Dunnett test for multiple comparisons of treatment groups versus the control was used for statistical analysis of data from cytotoxicity assay, AdipoRed assay, CYP450 inhibition assay as well as mixture effects. R studio (ver. 4.4.1) was used to determine the effective concentration at relative triglyceride induction fold of 1.5 for each test compound.

HepaRG cells [2] = experiment: Total RNA sequencing, differential gene expression
[3] = high sub-cytotoxic concentration, 24 h, vs solvent control
[4] = low sub-cytotoxic concentration, 24 h, vs solvent control

C#CCOc1ccc(CCNC(=O)C(OCC#C)c2ccc(Cl)cc2)cc1OC (stereo not drawn) [MDP, mandipropamid]
Relative triglyceride accumulation (HepaRG cells [1]; 5.00 mg/L, 72 h): 1.2
Relative triglyceride accumulation (HepaRG cells [1]; 6.00 mg/L, 72 h): 1.1
Relative triglyceride accumulation (HepaRG cells [1]; 8.00 mg/L, 72 h): 1.3
Relative triglyceride accumulation (HepaRG cells [1]; 10.0 mg/L, 72 h): 1.3
Relative triglyceride accumulation (HepaRG cells [1]; 12.0 mg/L, 72 h): 1.2
Relative triglyceride accumulation (HepaRG cells [1]; 15.0 mg/L, 72 h): 1.6
Relative triglyceride accumulation (HepaRG cells [1]; 19.0 mg/L, 72 h): 1.8
EC1.5-fold (effective concentration at 1.5 relative triglyceride induction fold) (HepaRG cells [1]; HepaRG cells, 72-h incubation): 14.4 mg/L
EC1.5-fold (HepaRG cells [1]; HepaRG cells, 72 h): ≈ 35 µM
Fold change ACOX1 (HepaRG cells [2]; gene ACOX1, MDP_HIGH): 0.9326
log2FoldChange ACOX1 (HepaRG cells [2]; gene ACOX1, MDP_HIGH): -0.1007
Fold change AHR (HepaRG cells [2]; gene AHR, MDP_HIGH): 1.696
log2FoldChange AHR (HepaRG cells [2]; gene AHR, MDP_HIGH): 0.7618
Fold change CD36 (HepaRG cells [2]; gene CD36, MDP_HIGH): 1.4443
log2FoldChange CD36 (HepaRG cells [2]; gene CD36, MDP_HIGH): 0.5304
Fold change CYP1A1 (HepaRG cells [2]; gene CYP1A1, MDP_HIGH): 10.9554
log2FoldChange CYP1A1 (HepaRG cells [2]; gene CYP1A1, MDP_HIGH): 3.454
Fold change CYP1A2 (HepaRG cells [2]; gene CYP1A2, MDP_HIGH): 0.4656
log2FoldChange CYP1A2 (HepaRG cells [2]; gene CYP1A2, MDP_HIGH): -1.103
Fold change CYP2B6 (HepaRG cells [2]; gene CYP2B6, MDP_HIGH): 1.009
log2FoldChange CYP2B6 (HepaRG cells [2]; gene CYP2B6, MDP_HIGH): 0.01275
Fold change CYP2C9 (HepaRG cells [2]; gene CYP2C9, MDP_HIGH): 0.1687
log2FoldChange CYP2C9 (HepaRG cells [2]; gene CYP2C9, MDP_HIGH): -2.568
Fold change CYP2C19 (HepaRG cells [2]; gene CYP2C19, MDP_HIGH): 0.1531
log2FoldChange CYP2C19 (HepaRG cells [2]; gene CYP2C19, MDP_HIGH): -2.707
Fold change CYP2D6 (HepaRG cells [2]; gene CYP2D6, MDP_HIGH): 0.9227
log2FoldChange CYP2D6 (HepaRG cells [2]; gene CYP2D6, MDP_HIGH): -0.116
Fold change CYP3A4 (HepaRG cells [2]; gene CYP3A4, MDP_HIGH): 0.7016
log2FoldChange CYP3A4 (HepaRG cells [2]; gene CYP3A4, MDP_HIGH): -0.5112
Fold change FASN (HepaRG cells [2]; gene FASN, MDP_HIGH): 1.131
log2FoldChange FASN (HepaRG cells [2]; gene FASN, MDP_HIGH): 0.178
Fold change INSIG1 (HepaRG cells [2]; gene INSIG1, MDP_HIGH): 1.034
log2FoldChange INSIG1 (HepaRG cells [2]; gene INSIG1, MDP_HIGH): 0.04872
Fold change MLXIPL (HepaRG cells [2]; gene MLXIPL, MDP_HIGH): 0.6622
log2FoldChange MLXIPL (HepaRG cells [2]; gene MLXIPL, MDP_HIGH): -0.5947
Fold change NR1H2 (HepaRG cells [2]; gene NR1H2, MDP_HIGH): 1.431
log2FoldChange NR1H2 (HepaRG cells [2]; gene NR1H2, MDP_HIGH): 0.5168
Fold change NR1H4 (HepaRG cells [2]; gene NR1H4, MDP_HIGH): 0.8415
log2FoldChange NR1H4 (HepaRG cells [2]; gene NR1H4, MDP_HIGH): -0.249
Fold change NR1I2 (HepaRG cells [2]; gene NR1I2, MDP_HIGH): 0.5918
log2FoldChange NR1I2 (HepaRG cells [2]; gene NR1I2, MDP_HIGH): -0.7568
Fold change NR1I3 (HepaRG cells [2]; gene NR1I3, MDP_HIGH): 0.06449
log2FoldChange NR1I3 (HepaRG cells [2]; gene NR1I3, MDP_HIGH): -3.955
Fold change NR3C1 (HepaRG cells [2]; gene NR3C1, MDP_HIGH): 1.123
log2FoldChange NR3C1 (HepaRG cells [2]; gene NR3C1, MDP_HIGH): 0.1669
Fold change PPARA (HepaRG cells [2]; gene PPARA, MDP_HIGH): 0.7275
log2FoldChange PPARA (HepaRG cells [2]; gene PPARA, MDP_HIGH): -0.4589
Fold change PPARG (HepaRG cells [2]; gene PPARG, MDP_HIGH): 4.604
log2FoldChange PPARG (HepaRG cells [2]; gene PPARG, MDP_HIGH): 2.203
Fold change RARA (HepaRG cells [2]; gene RARA, MDP_HIGH): 1.153
log2FoldChange RARA (HepaRG cells [2]; gene RARA, MDP_HIGH): 0.2052
Fold change RARB (HepaRG cells [2]; gene RARB, MDP_HIGH): 2.749
log2FoldChange RARB (HepaRG cells [2]; gene RARB, MDP_HIGH): 1.459
Fold change RARG (HepaRG cells [2]; gene RARG, MDP_HIGH): 1.386
log2FoldChange RARG (HepaRG cells [2]; gene RARG, MDP_HIGH): 0.4711
Fold change SCD (HepaRG cells [2]; gene SCD, MDP_HIGH): 0.8254
log2FoldChange SCD (HepaRG cells [2]; gene SCD, MDP_HIGH): -0.2768
Fold change SREBF1 (HepaRG cells [2]; gene SREBF1, MDP_HIGH): 0.451
log2FoldChange SREBF1 (HepaRG cells [2]; gene SREBF1, MDP_HIGH): -1.149
CYP1A1 Fold change (HepaRG cells [2]; [3]): ≈ 11
NR1I3 Fold change (HepaRG cells [2]; [3]): ≈ 0.06
SREBF1 Fold change (HepaRG cells [2]; [3]): ≈ 0.45
ACOX1 Fold change (HepaRG cells [2]; [4]): 1.035
ACOX1 log2FoldChange (HepaRG cells [2]; [4]): 0.04967
AHR Fold change (HepaRG cells [2]; [4]): 1.296
AHR log2FoldChange (HepaRG cells [2]; [4]): 0.3736
CD36 Fold change (HepaRG cells [2]; [4]): 1.929
CD36 log2FoldChange (HepaRG cells [2]; [4]): 0.9479
CYP1A1 Fold change (HepaRG cells [2]; [4]): 5.261
CYP1A1 log2FoldChange (HepaRG cells [2]; [4]): 2.395
CYP1A2 Fold change (HepaRG cells [2]; [4]): 0.6714
CYP1A2 log2FoldChange (HepaRG cells [2]; [4]): -0.5747
CYP2B6 Fold change (HepaRG cells [2]; [4]): 1.3371
CYP2B6 log2FoldChange (HepaRG cells [2]; [4]): 0.4191
CYP2C9 Fold change (HepaRG cells [2]; [4]): 0.329
CYP2C9 log2FoldChange (HepaRG cells [2]; [4]): -1.6038
CYP2C19 Fold change (HepaRG cells [2]; [4]): 0.4073
CYP2C19 log2FoldChange (HepaRG cells [2]; [4]): -1.2958
CYP2D6 Fold change (HepaRG cells [2]; [4]): 0.5576
CYP2D6 log2FoldChange (HepaRG cells [2]; [4]): -0.8427
CYP3A4 log2FoldChange (HepaRG cells [2]; [4]): 1.049
FASN Fold change (HepaRG cells [2]; [4]): 1.765
FASN log2FoldChange (HepaRG cells [2]; [4]): 0.8201
INSIG1 Fold change (HepaRG cells [2]; [4]): 1.785
INSIG1 log2FoldChange (HepaRG cells [2]; [4]): 0.8359
MLXIPL Fold change (HepaRG cells [2]; [4]): 0.9069
MLXIPL log2FoldChange (HepaRG cells [2]; [4]): -0.1409
NR1H2 Fold change (HepaRG cells [2]; [4]): 1.22
NR1H2 log2FoldChange (HepaRG cells [2]; [4]): 0.2868
NR1H4 Fold change (HepaRG cells [2]; [4]): 1.127
NR1H4 log2FoldChange (HepaRG cells [2]; [4]): 0.1725
NR1I2 Fold change (HepaRG cells [2]; [4]): 0.6165
NR1I2 log2FoldChange (HepaRG cells [2]; [4]): -0.6979
NR1I3 Fold change (HepaRG cells [2]; [4]): 0.09752
NR1I3 log2FoldChange (HepaRG cells [2]; [4]): -3.358
NR3C1 Fold change (HepaRG cells [2]; [4]): 1.06
NR3C1 log2FoldChange (HepaRG cells [2]; [4]): 0.08356
PPARA Fold change (HepaRG cells [2]; [4]): 0.907
PPARA log2FoldChange (HepaRG cells [2]; [4]): -0.1409
PPARG Fold change (HepaRG cells [2]; [4]): 2.875
PPARG log2FoldChange (HepaRG cells [2]; [4]): 1.5234
RARA Fold change (HepaRG cells [2]; [4]): 1.12
RARA log2FoldChange (HepaRG cells [2]; [4]): 0.164
RARB Fold change (HepaRG cells [2]; [4]): 3.072
RARB log2FoldChange (HepaRG cells [2]; [4]): 1.619
RARG Fold change (HepaRG cells [2]; [4]): 1.553
RARG log2FoldChange (HepaRG cells [2]; [4]): 0.6348
SCD Fold change (HepaRG cells [2]; [4]): 1.519
SCD log2FoldChange (HepaRG cells [2]; [4]): 0.6028
SREBF1 Fold change (HepaRG cells [2]; [4]): 0.7245
SREBF1 log2FoldChange (HepaRG cells [2]; [4]): -0.4649
